From the supplement of paper PMC12463676, “Small-molecule dissolution of stress granules by redox modulation benefits ALS models” (Nature Chemical Biology, 2025)

Assays:
[1] = compound: NC(=O)CCCCC1CCSS1 [lipoamide]; assay: thermal stability z-score vs DMSO; higher = more thermally stabilized by treatment; conditions: HeLa, lipoamide concentration 100 µM
Description: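 Cellular thermal proteome profiling in HeLa cells. Cells were treated with 100 µM lipoamide for 1 h, with or without 1 mM arsenate for a further 1 h, then heated to ten temperatures (37-66.3 °C), and soluble protein was quantified by TMT mass spectrometry relative to 0.1% DMSO controls. The thermal stability score (sum of log2 fold changes minus the abundance score) was transformed to a z-score; mean of n = 3 experiments.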

[2] = compound: O=[As]([O-])(O)O.[K+] [potassium arsenate]; assay: as above; conditions: HeLa; arsenate concentration 1 mM
Description: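 Cellular thermal proteome profiling in HeLa cells treated with 1 mM arsenate for 1 h (DMSO pretreatment), heated to ten temperatures (37-66.3 °C). Soluble protein was quantified by TMT mass spectrometry relative to DMSO controls; the thermal stability score was transformed to a z-score; mean of n = 3 experiments.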

[3] = arsenate co-treatment: 1 mM arsenate 1 h
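Further: each temperature applied for 3 min, abundance score taken as mean log2 fold change at the two lowest temperatures, z-score obtained by mean subtraction and division by SD.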

UniProt Q9HAT2, sequence (Q9HAT2 whole entry): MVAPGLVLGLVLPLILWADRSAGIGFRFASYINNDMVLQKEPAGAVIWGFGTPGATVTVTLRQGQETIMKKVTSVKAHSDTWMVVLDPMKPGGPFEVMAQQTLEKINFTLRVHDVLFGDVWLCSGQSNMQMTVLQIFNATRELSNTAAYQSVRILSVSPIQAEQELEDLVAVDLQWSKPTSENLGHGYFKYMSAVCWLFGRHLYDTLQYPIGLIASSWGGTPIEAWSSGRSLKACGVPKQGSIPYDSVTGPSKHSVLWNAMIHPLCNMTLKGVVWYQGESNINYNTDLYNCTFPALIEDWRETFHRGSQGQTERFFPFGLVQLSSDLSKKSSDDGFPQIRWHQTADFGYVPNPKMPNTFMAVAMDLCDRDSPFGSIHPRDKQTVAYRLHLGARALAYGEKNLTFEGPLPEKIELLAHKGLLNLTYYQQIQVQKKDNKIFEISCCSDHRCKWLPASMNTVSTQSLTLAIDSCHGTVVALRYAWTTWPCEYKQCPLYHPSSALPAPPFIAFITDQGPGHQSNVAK
UniProt Q9BWU0, sequence (Q9BWU0 whole entry): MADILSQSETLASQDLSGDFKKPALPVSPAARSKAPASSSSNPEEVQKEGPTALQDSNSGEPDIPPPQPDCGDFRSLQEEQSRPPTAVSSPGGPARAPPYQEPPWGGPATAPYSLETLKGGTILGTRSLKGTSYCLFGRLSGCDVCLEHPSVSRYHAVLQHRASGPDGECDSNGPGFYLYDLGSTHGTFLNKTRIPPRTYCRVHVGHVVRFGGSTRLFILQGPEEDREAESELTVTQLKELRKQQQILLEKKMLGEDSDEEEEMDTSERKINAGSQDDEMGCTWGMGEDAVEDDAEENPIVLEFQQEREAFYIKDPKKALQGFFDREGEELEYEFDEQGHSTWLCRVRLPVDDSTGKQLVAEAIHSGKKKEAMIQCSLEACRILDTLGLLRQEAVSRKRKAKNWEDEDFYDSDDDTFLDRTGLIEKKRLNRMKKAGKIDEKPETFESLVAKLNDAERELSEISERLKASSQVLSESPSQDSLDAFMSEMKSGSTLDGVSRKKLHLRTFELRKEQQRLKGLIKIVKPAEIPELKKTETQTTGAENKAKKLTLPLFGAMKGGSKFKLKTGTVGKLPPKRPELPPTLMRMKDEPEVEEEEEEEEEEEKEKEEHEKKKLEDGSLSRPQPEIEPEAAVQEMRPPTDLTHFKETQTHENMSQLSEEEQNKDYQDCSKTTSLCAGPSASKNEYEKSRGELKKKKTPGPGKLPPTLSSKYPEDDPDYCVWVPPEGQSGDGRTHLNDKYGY
UniProt Q99961, sequence (Q99961 whole entry): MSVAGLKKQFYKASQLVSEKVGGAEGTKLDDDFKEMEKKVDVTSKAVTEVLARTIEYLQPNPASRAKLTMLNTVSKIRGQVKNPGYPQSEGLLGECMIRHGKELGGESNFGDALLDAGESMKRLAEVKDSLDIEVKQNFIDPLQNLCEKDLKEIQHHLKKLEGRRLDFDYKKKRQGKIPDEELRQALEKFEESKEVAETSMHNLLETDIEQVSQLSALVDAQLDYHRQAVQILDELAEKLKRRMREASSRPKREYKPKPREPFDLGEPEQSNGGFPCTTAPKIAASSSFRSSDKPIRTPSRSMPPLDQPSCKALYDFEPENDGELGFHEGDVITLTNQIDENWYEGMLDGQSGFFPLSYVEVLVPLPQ
UniProt Q99720, sequence (Q99720 whole entry): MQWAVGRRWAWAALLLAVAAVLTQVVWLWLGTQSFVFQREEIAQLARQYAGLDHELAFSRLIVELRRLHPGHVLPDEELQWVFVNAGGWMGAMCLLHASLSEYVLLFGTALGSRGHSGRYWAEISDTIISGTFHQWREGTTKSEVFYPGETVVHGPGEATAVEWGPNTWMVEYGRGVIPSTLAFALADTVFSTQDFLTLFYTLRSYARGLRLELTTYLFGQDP
UniProt Q9BX95, sequence (Q9BX95 whole entry): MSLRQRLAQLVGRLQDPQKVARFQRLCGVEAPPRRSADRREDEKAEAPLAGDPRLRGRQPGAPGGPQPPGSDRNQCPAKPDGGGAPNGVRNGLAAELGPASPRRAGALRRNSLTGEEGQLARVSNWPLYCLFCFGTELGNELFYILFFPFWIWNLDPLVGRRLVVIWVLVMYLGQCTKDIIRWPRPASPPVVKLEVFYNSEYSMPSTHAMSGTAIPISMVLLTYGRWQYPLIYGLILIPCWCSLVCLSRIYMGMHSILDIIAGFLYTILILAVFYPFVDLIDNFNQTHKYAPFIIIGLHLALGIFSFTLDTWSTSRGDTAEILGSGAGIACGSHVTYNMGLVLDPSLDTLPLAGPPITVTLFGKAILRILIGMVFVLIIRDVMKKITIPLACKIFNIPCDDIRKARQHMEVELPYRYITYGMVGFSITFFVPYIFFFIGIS
UniProt O00141, sequence (O00141 whole entry): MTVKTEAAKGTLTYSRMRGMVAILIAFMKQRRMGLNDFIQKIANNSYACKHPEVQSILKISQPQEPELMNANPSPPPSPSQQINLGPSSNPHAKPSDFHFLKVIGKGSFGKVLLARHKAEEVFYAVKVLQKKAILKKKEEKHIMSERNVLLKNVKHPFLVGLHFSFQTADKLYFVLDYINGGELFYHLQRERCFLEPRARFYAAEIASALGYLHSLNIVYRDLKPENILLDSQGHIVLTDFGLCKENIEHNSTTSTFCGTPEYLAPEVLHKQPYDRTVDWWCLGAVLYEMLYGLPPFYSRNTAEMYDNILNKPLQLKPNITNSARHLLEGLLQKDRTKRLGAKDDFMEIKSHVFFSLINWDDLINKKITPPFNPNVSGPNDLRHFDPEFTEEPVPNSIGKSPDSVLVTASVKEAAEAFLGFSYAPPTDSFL
UniProt Q9H788, sequence (Q9H788 whole entry, looked up): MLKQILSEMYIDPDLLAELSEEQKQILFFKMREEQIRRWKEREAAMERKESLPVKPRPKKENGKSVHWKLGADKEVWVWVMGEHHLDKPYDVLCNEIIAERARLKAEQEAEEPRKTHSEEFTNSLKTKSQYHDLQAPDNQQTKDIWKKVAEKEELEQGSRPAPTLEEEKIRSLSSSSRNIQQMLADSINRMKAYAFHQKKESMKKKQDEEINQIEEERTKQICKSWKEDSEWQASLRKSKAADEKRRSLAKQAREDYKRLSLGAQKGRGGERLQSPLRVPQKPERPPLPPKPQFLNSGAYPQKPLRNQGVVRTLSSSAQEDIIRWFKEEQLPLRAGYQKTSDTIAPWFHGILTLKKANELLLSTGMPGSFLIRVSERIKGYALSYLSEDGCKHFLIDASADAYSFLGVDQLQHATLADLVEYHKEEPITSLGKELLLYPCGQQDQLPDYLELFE
UniProt P08195, sequence (P08195 whole entry): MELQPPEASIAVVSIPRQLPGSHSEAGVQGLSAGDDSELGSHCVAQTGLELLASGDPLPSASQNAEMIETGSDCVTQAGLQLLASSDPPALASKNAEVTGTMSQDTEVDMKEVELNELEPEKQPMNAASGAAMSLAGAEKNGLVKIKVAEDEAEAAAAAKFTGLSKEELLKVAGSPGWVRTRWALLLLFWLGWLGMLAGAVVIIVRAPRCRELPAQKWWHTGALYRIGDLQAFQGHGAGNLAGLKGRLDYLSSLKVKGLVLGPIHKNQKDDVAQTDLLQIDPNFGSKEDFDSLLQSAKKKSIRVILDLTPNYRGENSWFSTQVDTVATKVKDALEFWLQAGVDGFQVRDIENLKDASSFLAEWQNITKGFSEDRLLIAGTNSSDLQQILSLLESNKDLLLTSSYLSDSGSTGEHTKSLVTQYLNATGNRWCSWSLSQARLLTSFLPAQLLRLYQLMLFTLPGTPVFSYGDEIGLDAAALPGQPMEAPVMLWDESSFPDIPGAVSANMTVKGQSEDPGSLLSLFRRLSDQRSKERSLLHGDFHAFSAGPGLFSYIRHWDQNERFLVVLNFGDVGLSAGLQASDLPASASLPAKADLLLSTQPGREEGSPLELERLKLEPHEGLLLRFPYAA
UniProt Q2M3G4, sequence (Q2M3G4 whole entry): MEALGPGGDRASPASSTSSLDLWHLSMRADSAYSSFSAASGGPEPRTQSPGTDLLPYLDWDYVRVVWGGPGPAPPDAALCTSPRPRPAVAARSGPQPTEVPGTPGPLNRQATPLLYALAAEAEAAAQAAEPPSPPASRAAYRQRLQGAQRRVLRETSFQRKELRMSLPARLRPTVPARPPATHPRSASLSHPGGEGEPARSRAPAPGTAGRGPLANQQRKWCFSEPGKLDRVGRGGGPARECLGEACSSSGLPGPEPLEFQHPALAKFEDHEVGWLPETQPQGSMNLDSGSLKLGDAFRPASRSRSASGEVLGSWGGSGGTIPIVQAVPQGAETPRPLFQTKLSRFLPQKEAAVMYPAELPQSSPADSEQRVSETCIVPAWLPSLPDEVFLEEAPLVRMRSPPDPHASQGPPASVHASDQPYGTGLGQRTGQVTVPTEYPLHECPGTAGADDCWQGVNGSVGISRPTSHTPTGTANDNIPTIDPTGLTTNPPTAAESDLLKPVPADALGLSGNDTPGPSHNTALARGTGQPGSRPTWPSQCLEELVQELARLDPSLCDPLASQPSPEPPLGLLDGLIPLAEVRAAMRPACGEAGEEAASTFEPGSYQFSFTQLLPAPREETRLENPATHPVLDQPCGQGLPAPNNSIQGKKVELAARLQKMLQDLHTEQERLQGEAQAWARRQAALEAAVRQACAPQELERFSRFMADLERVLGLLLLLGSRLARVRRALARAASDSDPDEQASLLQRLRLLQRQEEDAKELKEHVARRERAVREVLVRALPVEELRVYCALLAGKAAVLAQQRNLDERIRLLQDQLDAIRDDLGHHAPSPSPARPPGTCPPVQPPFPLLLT
UniProt O43765, sequence (O43765 whole entry): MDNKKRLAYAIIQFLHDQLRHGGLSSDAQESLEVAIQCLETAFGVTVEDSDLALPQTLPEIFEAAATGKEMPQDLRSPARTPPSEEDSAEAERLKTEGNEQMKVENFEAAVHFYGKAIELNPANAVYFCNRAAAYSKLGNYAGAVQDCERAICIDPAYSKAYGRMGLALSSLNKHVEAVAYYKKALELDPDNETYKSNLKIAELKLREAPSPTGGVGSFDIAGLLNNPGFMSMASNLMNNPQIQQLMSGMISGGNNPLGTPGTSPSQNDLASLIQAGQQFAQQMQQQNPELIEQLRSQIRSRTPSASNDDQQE

Row | Target | thermal stability z-score [1, 3] | thermal stability z-score ([1]; arsenate co-treatment: none) | thermal stability z-score [2]
1 | SGK1 (UniProt O00141) | 0.0815 | -0.0515 | 0.187
2 | SGMS2 (UniProt Q8NHU3) | -1.39 | -0.337 | -1.22
3 | SGPL1 (UniProt O95470) | 0.442 | 0.255 | -0.584
4 | SGPP1 (UniProt Q9BX95) | 0.332 | -0.299 | -0.0282
5 | SGTA (UniProt O43765) | 0.332 | 0.487 | 0.149
6 | SGTB (UniProt Q96EQ0) | 0.0457 | 0.112 | -0.308
7 | SH2D3A (UniProt Q9BRG2) | 0.139 | -0.263 | 0.0147
8 | SH2D4A (UniProt Q9H788) | 0.0871 | 0.021 | 0.112
9 | SH3BGRL3 (UniProt Q9H299) | -0.0209 | -0.395 | 0.000903
10 | SH3BGRL (UniProt O75368) | 0.42 | 0.213 | 0.235
11 | SH3BP4 (UniProt Q9P0V3) | 0.0947 | 0.0993 | -0.0405
12 | SH3BP5 (UniProt O60239) | 0.466 | -0.17 | -0.00483
13 | SH3BP5L (UniProt Q7L8J4) | 0.286 | 0.0604 | 0.227
14 | SH3D19 (UniProt Q5HYK7) | 0.277 | 0.225 | 0.228
15 | SH3GL1 (UniProt Q99961) | -0.0464 | 0.144 | 0.538
16 | SH3GL2 (UniProt Q99962) | 0.272 | 0.622 | 0.00309
17 | SH3GLB1 (UniProt Q9Y371) | -0.179 | -0.0481 | 0.658
18 | SH3GLB2 (UniProt Q9NR46) | -0.0875 | 0.468 | 0.364
19 | SH3KBP1 (UniProt Q96B97) | 0.46 | 0.0841 | -0.523
20 | SH3PXD2A (UniProt Q5TCZ1) | -0.325 | -1.05 | 0.207
21 | SH3PXD2B (UniProt A1X283) | -0.428 | -0.272 | -0.433
22 | SH3RF1 (UniProt Q7Z6J0) | -0.0346 | 0.00665 | -0.327
23 | SHC1 (UniProt P29353) | -0.383 | 0.739 | 0.126
24 | SHCBP1 (UniProt Q8NEM2) | 0.0159 | 0.0645 | -0.451

Row | Target | thermal stability z-score [1, 3] | thermal stability z-score ([1]; arsenate co-treatment: none) | thermal stability z-score [2]
25 | SHKBP1 (UniProt Q8TBC3) | 0.0505 | 0.242 | -0.372
26 | SHMT1 (UniProt P34896) | 0.374 | -0.0345 | 0.764
27 | SHMT2 (UniProt P34897) | -0.198 | -0.436 | 0.0996
28 | SHOC2 (UniProt Q9UQ13) | 0.22 | -0.229 | -0.00952
29 | SHQ1 (UniProt Q6PI26) | -0.105 | 0.0326 | 0.000909
30 | SHROOM1 (UniProt Q2M3G4) | -0.159 | -0.157 | 0.508
31 | SHTN1 (UniProt A0MZ66) | 1.1 | 0.75 | 1.25
32 | SIAE (UniProt Q9HAT2) | 0.527 | 0.537 | 0.741
33 | SIDT2 (UniProt Q8NBJ9) | -1.33 | -1.46 | -1.91
34 | SIGMAR1 (UniProt Q99720) | 0.596 | 0.0865 | 0.687
35 | SIL1 (UniProt Q9H173) | -3.15 | -2.4 | 1.44
36 | SIN3A (UniProt Q96ST3) | -0.000782 | 0.0569 | -0.303
37 | SIN3B (UniProt O75182) | 0.0836 | 0.279 | -0.327
38 | SIPA1 (UniProt Q96FS4) | -0.295 | 0.0519 | 0.319
39 | SIPA1L2 (UniProt Q9P2F8) | 0.197 | 0.0316 | -0.149
40 | SIRT1 (UniProt Q96EB6) | -0.368 | -0.379 | -0.922
41 | SIRT2 (UniProt Q8IXJ6) | 0.594 | 0.653 | -0.31
42 | SIRT5 (UniProt Q9NXA8) | -0.814 | -1.26 | -1.02
43 | SIRT6 (UniProt Q8N6T7) | -0.0481 | -0.176 | -0.21
44 | SKA1 (UniProt Q96BD8) | -0.047 | 0.0119 | -0.0935
45 | SKA2 (UniProt Q8WVK7) | -0.397 | -0.0647 | -0.271
46 | SKA3 (UniProt Q8IX90) | -0.0726 | 0.132 | -0.18
47 | SKIV2L2 (UniProt P42285) | 0.46 | 0.334 | 0.0276
48 | SKIV2L (UniProt Q15477) | -0.147 | -0.384 | 0.2

Row | Target | thermal stability z-score [1, 3] | thermal stability z-score ([1]; arsenate co-treatment: none) | thermal stability z-score [2]
49 | SKP1 (UniProt P63208) | 0.337 | 0.557 | -0.000141
50 | SKP2 (UniProt Q13309) | -0.219 | -0.122 | -0.872
51 | SLAIN2 (UniProt Q9P270) | 0.251 | 0.508 | -0.0239
52 | SLBP (UniProt Q14493) | -0.736 | 0.179 | -1.06
53 | SLC1A3 (UniProt P43003) | -0.157 | 0.124 | 0.352
54 | SLC1A4 (UniProt P43007) | -0.807 | -0.485 | -0.588
55 | SLC1A5 (UniProt Q15758) | 0.752 | 0.31 | 0.00339
56 | SLC2A1 (UniProt P11166) | 0.651 | 0.659 | 0.124
57 | SLC2A3 (UniProt P11169) | 0.481 | 0.126 | -0.293
58 | SLC3A2 (UniProt P08195) | 0.528 | 0.49 | 0.0559
59 | SLC4A1AP (UniProt Q9BWU0) | 0.445 | 0.341 | -1.27
60 | SLC4A2 (UniProt P04920) | 0.115 | 0.433 | 0.173
61 | SLC4A7 (UniProt Q9Y6M7) | -0.0849 | 0.00104 | -0.747
62 | SLC5A3 (UniProt P53794) | -0.536 | -0.363 | -1.12
63 | SLC5A6 (UniProt Q9Y289) | -0.586 | -0.512 | 0.342
64 | SLC6A6 (UniProt P31641) | -0.428 | -0.488 | -0.649
65 | SLC6A9 (UniProt P48067) | -0.26 | -0.8 | -0.636
66 | SLC7A1 (UniProt P30825) | 0.364 | -0.194 | -0.33
67 | SLC7A2 (UniProt P52569) | 0.412 | -0.0842 | 0.647
68 | SLC7A5 (UniProt Q01650) | 1.39 | 1.19 | 1.47
69 | SLC7A6 (UniProt Q92536) | -0.86 | -0.83 | -0.695
70 | SLC7A6OS (UniProt Q96CW6) | -0.344 | 0.403 | -0.000281
71 | SLC7A11 (UniProt Q9UPY5) | 0.242 | 0.155 | -0.0447
